Laboratory results reported in ChEMBL document CHEMBL1201862, “PubChem BioAssay data set” (2004).
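Exposure lasted 48 hours, with cells grown in 96-well plates and compounds tested at five concentrations. GI50 = concentration required for 50% inhibition of growth.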 The source made the active and inactive calls. Cut-off read from the data, not from the text of the source: active = GI50 up to about 1.1 µM and inactive = higher.

Assays:
Experiment in all cases: growth of human tumour cells (NCI), 48 h
Hs-578T = test system: Hs-578T
RPMI-8226 = test system: RPMI-8226
SF-295 = test system: SF-295
UACC-257 = test system: UACC-257
SK-MEL-28 = test system: SK-MEL-28
BT-549 = test system: BT-549
EKVX = test system: EKVX
DU-145 = test system: DU-145
OVCAR-4 = test system: OVCAR-4
IGROV-1 = test system: IGROV-1
Malme-3M = test system: Malme-3M
SK-MEL-2 = test system: SK-MEL-2
HCT-116 = test system: HCT-116
SF-268 = test system: SF-268
T47D = test system: T47D
MDA-MB-231 = test system: MDA-MB-231
M14 = test system: M14
DMS-114 = test system: DMS-114
UACC-62 = test system: UACC-62
MDA-MB-435 = test system: MDA-MB-435
HCT-15 = test system: HCT-15
OVCAR-3 = test system: OVCAR-3
SK-OV-3 = test system: SK-OV-3
LOX IMVI = test system: LOX IMVI
SNB-78 = test system: SNB-78
KM12 = test system: KM12
ACHN = test system: ACHN
A498 = test system: A498
DMS-273 = test system: DMS-273
U-251 = test system: U-251
UO-31 = test system: UO-31
KM-20L2 = test system: KM-20L2
LXFL 529 = test system: LXFL 529
SN12C = test system: SN12C
MCF7 = test system: MCF7
M19-MEL = test system: M19-MEL
HOP-92 = test system: HOP-92
RXF 393 = test system: RXF 393
CAKI-1 = test system: CAKI-1
NCI/ADR-RES = test system: NCI/ADR-RES
RXF 631 = test system: RXF 631
SNB-19 = test system: SNB-19
DLD-1 = test system: DLD-1
786-0 = test system: 786-0
K562 = test system: K562
SK-MEL-5 = test system: SK-MEL-5
SNB-75 = test system: SNB-75
NCI-H23 = test system: NCI-H23
TK-10 = test system: TK-10
PC-3 = test system: PC-3
SR = test system: SR
SF-539 = test system: SF-539
NCI-H226 = test system: NCI-H226
HOP-62 = test system: HOP-62
MOLT-4 = test system: MOLT-4
SW-620 = test system: SW-620
XF498 = test system: XF498
A549 = test system: A549
COLO 205 = test system: COLO 205
NCI-H522 = test system: NCI-H522
OVCAR-8 = test system: OVCAR-8
HCC 2998 = test system: HCC 2998
OVCAR-5 = test system: OVCAR-5
HT-29 = test system: HT-29
CCRF-CEM = test system: CCRF-CEM
HL-60 = test system: HL-60
NCI-H460 = test system: NCI-H460
HOP-18 = test system: HOP-18

Measured: GI50

C/C(=N\N)C(CN1CCCCC1)C(c1ccccc1)c1c(O)c2ccccc2oc1=O (stereo not given)
inactive: Hs-578T > 100 µM | RPMI-8226 > 100 µM | SF-295 > 100 µM | UACC-257 > 100 µM | SK-MEL-28 > 100 µM | BT-549 > 100 µM | EKVX > 100 µM | DU-145 > 100 µM | OVCAR-4 > 100 µM | IGROV-1 > 100 µM | Malme-3M > 87.7 µM | SK-MEL-2 > 100 µM | HCT-116 > 100 µM | SF-268 > 100 µM | T47D > 100 µM | MDA-MB-231 > 100 µM | M14 > 100 µM | DMS-114 > 100 µM | UACC-62 > 100 µM | MDA-MB-435 > 100 µM | OVCAR-3 > 100 µM | SK-OV-3 > 100 µM | LOX IMVI 25.7 µM | SNB-78 > 100 µM | KM12 > 100 µM | ACHN > 100 µM | A498 > 100 µM | DMS-273 > 100 µM | U-251 > 100 µM | UO-31 > 67.3 µM | KM-20L2 > 100 µM | LXFL 529 > 100 µM | SN12C > 100 µM | MCF7 > 100 µM | M19-MEL > 100 µM | HOP-92 67 µM | RXF 393 > 54.1 µM | CAKI-1 > 100 µM | NCI/ADR-RES > 100 µM | RXF 631 > 100 µM | SNB-19 > 100 µM | DLD-1 > 100 µM | 786-0 > 100 µM | K562 > 100 µM | SK-MEL-5 > 100 µM | SNB-75 32.7 µM | NCI-H23 > 100 µM | TK-10 > 100 µM | PC-3 > 100 µM | SR > 100 µM | SF-539 > 100 µM | NCI-H226 > 100 µM | HOP-62 > 100 µM | MOLT-4 > 69.2 µM | SW-620 > 100 µM | XF498 > 100 µM | A549 > 100 µM | COLO 205 > 100 µM | NCI-H522 > 100 µM | OVCAR-8 > 100 µM | HCC 2998 > 100 µM | OVCAR-5 > 100 µM | HT-29 > 100 µM | CCRF-CEM > 100 µM | HL-60 > 71 µM | NCI-H460 > 100 µM
> 100 µM: HCT-15

COc1cc([C@H]2Oc3c(c(O)cc4oc(-c5ccccc5)cc(=O)c34)O[C@@H]2CO)ccc1O
inactive: RPMI-8226 7.53 µM | SK-MEL-28 45.8 µM | OVCAR-4 23.8 µM | IGROV-1 51.8 µM | Malme-3M 24.2 µM | SK-MEL-2 22.8 µM | HCT-116 21.5 µM | SF-268 11.7 µM | M14 17.5 µM | DMS-114 20 µM | UACC-62 29.9 µM | SK-OV-3 84.9 µM | SNB-78 > 100 µM | A498 67 µM | DMS-273 8.83 µM | UO-31 31.9 µM | LXFL 529 24.3 µM | SN12C 35.9 µM | M19-MEL 24.7 µM | HOP-92 31.7 µM | CAKI-1 63.2 µM | RXF 631 23.8 µM | DLD-1 16.6 µM | 786-0 21.9 µM | K562 21.6 µM | SNB-75 28.9 µM | NCI-H23 38.5 µM | SR 8.87 µM | SF-539 > 100 µM | NCI-H226 71.1 µM | HOP-62 > 100 µM | MOLT-4 > 10 µM | XF498 25.4 µM | COLO 205 31.8 µM | NCI-H522 19.1 µM | HCC 2998 25.6 µM | CCRF-CEM 4.34 µM | HL-60 13.7 µM | NCI-H460 5.14 µM

C=C1CCCC2[C@](C)(CC3=C(O)C(=O)C=C(OC)C3=O)[C@@H](C)CC[C@]12C (stereo not given in full)
2.71 µM: HCT-15
inactive: RPMI-8226 2.74 µM | SF-295 2.51 µM | UACC-257 3.3 µM | SK-MEL-28 3.99 µM | EKVX 6.28 µM | OVCAR-4 5.65 µM | IGROV-1 3.22 µM | Malme-3M 2.9 µM | SK-MEL-2 2.45 µM | HCT-116 3.71 µM | SF-268 4.31 µM | M14 1.81 µM | DMS-114 1.99 µM | UACC-62 2.22 µM | OVCAR-3 3.53 µM | SK-OV-3 12.6 µM | LOX IMVI 4.97 µM | KM12 2.72 µM | ACHN 4.06 µM | A498 6.27 µM | U-251 4.06 µM | HOP-18 1.7 µM | KM-20L2 4.24 µM | LXFL 529 6.04 µM | SN12C 10.5 µM | M19-MEL 1.81 µM | RXF 393 2.73 µM | CAKI-1 3.62 µM | RXF 631 9.62 µM | DLD-1 7.18 µM | 786-0 2.64 µM | K562 4.07 µM | SK-MEL-5 2.42 µM | SNB-75 3.94 µM | NCI-H23 3.05 µM | TK-10 7.16 µM | SF-539 2.79 µM | SW-620 3.01 µM | XF498 16.7 µM | A549 2.86 µM | COLO 205 7.35 µM | NCI-H522 6.82 µM | OVCAR-8 4.41 µM | HCC 2998 7.89 µM | HT-29 10.9 µM | CCRF-CEM 2.36 µM | HL-60 2.4 µM | NCI-H460 2.8 µM
